Inhibition data for 3 compounds are collected here from ChEMBL document CHEMBL5442219.

Common to all, as to conditions: Compound concentration 10 µM
Test [1] addresses T1, Alpha-1D adrenergic receptor (Homo sapiens) (UniProt P25100).
T1 sequence (whole entry): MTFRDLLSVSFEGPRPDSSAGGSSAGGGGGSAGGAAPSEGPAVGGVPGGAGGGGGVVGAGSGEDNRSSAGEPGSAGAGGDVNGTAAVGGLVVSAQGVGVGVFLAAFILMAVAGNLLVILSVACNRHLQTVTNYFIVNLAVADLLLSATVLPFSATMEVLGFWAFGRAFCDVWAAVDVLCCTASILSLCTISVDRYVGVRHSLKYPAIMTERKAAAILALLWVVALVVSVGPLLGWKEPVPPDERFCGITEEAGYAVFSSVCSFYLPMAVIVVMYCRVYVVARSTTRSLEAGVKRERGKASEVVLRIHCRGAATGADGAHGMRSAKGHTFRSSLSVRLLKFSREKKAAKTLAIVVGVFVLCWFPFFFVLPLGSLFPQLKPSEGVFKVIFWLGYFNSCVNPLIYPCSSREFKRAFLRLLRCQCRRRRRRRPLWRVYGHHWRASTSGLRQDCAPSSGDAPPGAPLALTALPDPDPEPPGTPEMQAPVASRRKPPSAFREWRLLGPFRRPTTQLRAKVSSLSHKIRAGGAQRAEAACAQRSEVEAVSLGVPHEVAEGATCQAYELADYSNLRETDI
Description: PDSP Primary Binding target: ADRA1D - Compounds are tested at 10 uM concentration, plate are incubated at room temperature in the dark for 90 minutes. Reaction are stopped by vacuum filtration onto 0.3% polyethyleneimine soaked filter mats using Filtermate harvester. Scintilation cocktail is then melted onto microwave-dried filters on a hot plate and the radio activity is counted in Microbia counter.

Test [2] concerns the target T2, Alpha-2A adrenergic receptor (Homo sapiens) (UniProt P08913).
T2 sequence (whole entry): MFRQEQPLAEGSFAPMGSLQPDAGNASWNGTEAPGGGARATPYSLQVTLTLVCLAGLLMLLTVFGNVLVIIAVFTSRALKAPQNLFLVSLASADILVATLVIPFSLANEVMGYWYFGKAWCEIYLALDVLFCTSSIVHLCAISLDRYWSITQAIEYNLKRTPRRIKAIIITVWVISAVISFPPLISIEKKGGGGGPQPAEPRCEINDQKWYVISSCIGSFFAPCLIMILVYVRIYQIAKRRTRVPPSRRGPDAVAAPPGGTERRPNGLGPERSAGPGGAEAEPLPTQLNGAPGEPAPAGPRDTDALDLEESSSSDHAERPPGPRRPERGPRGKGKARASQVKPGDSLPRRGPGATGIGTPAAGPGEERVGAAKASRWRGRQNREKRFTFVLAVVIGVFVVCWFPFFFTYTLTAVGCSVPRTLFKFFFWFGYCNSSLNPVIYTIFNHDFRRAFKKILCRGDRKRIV
Description: PDSP Primary Binding target: ADRA2A - Compounds are tested at 10 uM concentration, plate are incubated at room temperature in the dark for 90 minutes. Reaction are stopped by vacuum filtration onto 0.3% polyethyleneimine soaked filter mats using Filtermate harvester. Scintilation cocktail is then melted onto microwave-dried filters on a hot plate and the radio activity is counted in Microbia counter.

The target in test [3] is 5-hydroxytryptamine receptor 1B (Homo sapiens) (UniProt P28222).
Description: PDSP Primary Binding target: HTR1B - Compounds are tested at 10 uM concentration, plate are incubated at room temperature in the dark for 90 minutes. Reaction are stopped by vacuum filtration onto 0.3% polyethyleneimine soaked filter mats using Filtermate harvester. Scintilation cocktail is then melted onto microwave-dried filters on a hot plate and the radio activity is counted in Microbia counter.
Test [4] has as its target Sodium-dependent serotonin transporter (Homo sapiens) (UniProt P31645).
Description: PDSP Primary Binding target: SLC6A4 - Compounds are tested at 10 uM concentration, plate are incubated at room temperature in the dark for 90 minutes. Reaction are stopped by vacuum filtration onto 0.3% polyethyleneimine soaked filter mats using Filtermate harvester. Scintilation cocktail is then melted onto microwave-dried filters on a hot plate and the radio activity is counted in Microbia counter.
For test [5], the target named is T3, Muscarinic acetylcholine receptor M5 (Homo sapiens) (UniProt P08912).
T3 sequence (whole entry): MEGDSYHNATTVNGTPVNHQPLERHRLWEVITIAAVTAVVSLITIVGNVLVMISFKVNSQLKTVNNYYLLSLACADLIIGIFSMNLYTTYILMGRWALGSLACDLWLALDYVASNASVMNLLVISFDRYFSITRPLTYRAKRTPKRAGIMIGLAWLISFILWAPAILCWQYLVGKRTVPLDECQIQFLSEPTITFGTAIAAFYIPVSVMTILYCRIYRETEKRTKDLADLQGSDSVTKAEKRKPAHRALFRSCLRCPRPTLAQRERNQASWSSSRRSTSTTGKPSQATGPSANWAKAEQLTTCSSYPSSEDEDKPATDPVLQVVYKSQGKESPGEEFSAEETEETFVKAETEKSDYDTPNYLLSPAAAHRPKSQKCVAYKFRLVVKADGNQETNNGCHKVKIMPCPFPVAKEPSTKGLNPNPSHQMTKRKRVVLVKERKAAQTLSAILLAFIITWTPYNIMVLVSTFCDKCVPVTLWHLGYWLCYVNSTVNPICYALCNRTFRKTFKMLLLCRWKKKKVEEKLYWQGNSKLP
Description: PDSP Primary Binding target: CHRM5 - Compounds are tested at 10 uM concentration, plate are incubated at room temperature in the dark for 90 minutes. Reaction are stopped by vacuum filtration onto 0.3% polyethyleneimine soaked filter mats using Filtermate harvester. Scintilation cocktail is then melted onto microwave-dried filters on a hot plate and the radio activity is counted in Microbia counter.

5-hydroxytryptamine receptor 1B (Homo sapiens), sequence (P28222 whole entry): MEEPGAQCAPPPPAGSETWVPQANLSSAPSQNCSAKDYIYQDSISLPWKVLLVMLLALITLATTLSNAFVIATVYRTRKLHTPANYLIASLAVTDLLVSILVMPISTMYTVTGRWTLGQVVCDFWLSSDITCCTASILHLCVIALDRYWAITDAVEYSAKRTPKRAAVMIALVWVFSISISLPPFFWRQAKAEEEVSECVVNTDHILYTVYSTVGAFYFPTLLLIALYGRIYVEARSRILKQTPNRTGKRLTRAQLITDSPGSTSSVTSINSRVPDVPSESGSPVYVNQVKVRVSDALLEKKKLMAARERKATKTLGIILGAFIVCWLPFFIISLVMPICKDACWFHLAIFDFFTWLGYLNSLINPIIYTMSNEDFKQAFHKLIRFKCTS
Sodium-dependent serotonin transporter (Homo sapiens), sequence (P31645 whole entry, looked up): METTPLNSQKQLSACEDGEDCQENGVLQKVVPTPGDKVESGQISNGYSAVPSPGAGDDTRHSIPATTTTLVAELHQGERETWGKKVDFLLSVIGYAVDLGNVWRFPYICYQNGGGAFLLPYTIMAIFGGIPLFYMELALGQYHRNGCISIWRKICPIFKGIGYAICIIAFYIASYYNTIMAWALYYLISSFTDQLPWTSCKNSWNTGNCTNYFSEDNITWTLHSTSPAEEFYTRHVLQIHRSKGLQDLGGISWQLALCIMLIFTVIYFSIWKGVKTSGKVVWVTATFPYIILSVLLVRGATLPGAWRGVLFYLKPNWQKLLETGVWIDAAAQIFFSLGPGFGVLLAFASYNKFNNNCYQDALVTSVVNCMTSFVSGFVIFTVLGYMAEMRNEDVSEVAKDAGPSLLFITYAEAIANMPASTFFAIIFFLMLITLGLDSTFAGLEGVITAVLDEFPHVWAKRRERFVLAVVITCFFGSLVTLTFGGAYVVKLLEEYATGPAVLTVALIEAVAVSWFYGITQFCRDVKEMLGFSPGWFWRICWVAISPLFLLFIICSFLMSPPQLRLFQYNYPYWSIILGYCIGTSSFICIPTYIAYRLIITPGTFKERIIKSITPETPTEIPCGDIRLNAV

What is called inhibition is the change of the read-out against control, counted positive when it falls. On to `Cc1nnn(-c2ccc(-c3ccc(C4(C(=O)O)CC4)cc3)cc2)c1NC(=O)O[C@H](C)c1ccccc1`, for which the inhibition in test [1] is 23.9%; in test [2], 0.57%; in test [3] it was -3.56%.
Take `Cc1csc(NC(=O)c2cc(F)cc(Oc3cncnc3)c2)n1`: the inhibition in test [4] was 21.2%; in test [3] it was -4.65%.
Consider `COC1CCN(c2cccc(-c3cc(NC(C)=O)nc(-n4nc(C)cc4C)n3)n2)CC1`, for which the inhibition was 17.4% in test [1] and -2.53% in test [5].
